Results: patent EP0595743B1, “Bihaptinic derivatives for binding technetium or rhenium, process for their preparation, application for diagnosis and therapy, kits and immunological reactants comprising them” (priority 1992, dated 2001)

Columns and labels:
cellules LS-174 T = conditions: LS-174 T cells 7.10^6/ml, 4 °C, 2 h; nanomolar concentrations of bispecific antibody (anti-CEA/anti-histamine-succinyl-glycine); maximum binding
Experimental: Des cellules LS-174 T (7.10^6 cellules/ml), cellules d'origine humaine connues pour exprimer à leur surface l'antigène carcino-embryonnaire, sont incubées à 4° C pendant 2 heures dans des tubes contenant un tampon phosphate isotonique à pH 7,3. Dans ces tubes, ont été ajoutés à des concentrations variables le conjugué bispécifique approprié (anti-antigène carcino-embryonnaire/anti-histamine-succinyl-glycine), marqué à l'iode-125 suivant une des techniques bien connues et la sonde, marquée au ^99mTc comme décrit ci-dessus. Ces concentrations sont calculées pour couvrir un domaine s'étendant de concentrations très inférieures à très supérieures à la concentration de l'antigène cible dans le mélange. A la fin de cette incubation, 100 µl de mélange sont transférés en triplicates dans des tubes contenant un mélange de phthalates. Les tubes sont centrifugés 30 secondes à environ 5000 g. Les cellules, plus denses que les phthalates, forment un culot alors que le surnageant reste à la surface. On peut alors compter séparément les activités (^125I et ^99mTc) liées aux cellules et les activités non liées et en calculer les rapports.

[1] = system: lymphocytes de souris BALB/c qui expriment l'antigène Lyb 8.2; conditions: 1 µg conjugate CY34-679.1MC7 a few minutes earlier; 100 µCi; 4 h after injection
Experimental: (§1) La liaison du dérivé de l'exemple 3 aux cellules hépatiques s'effectue par l'intermédiaire de sa liaison au site Ac de l'anticorps 679.1MC7, lui même lié par son fragment F(c) à ces cellules. Des souris ayant reçu 2µg d'anticorps 679.1MC7 24 heures plus tôt sont injectées par voie intraveineuse avec 100 µCi (15 pmol) de dérivé de l'exemple 3. Les images sont réalisées avec une caméra Sopha Medical Gammatome 2 équipée avec un collimateur haute résolution de moyenne énergie, puis les animaux sont sacrifiés et la radioactivité présente dans le foie est déterminée à l'aide d'un compteur gamma. […] 100 µCi de dérivé de l'exemple 3 sont injectés à une souris ayant reçu quelques minutes plus tôt 1µg de conjugué anticorps CY34-679.1MC7 (anti-lyb8.2-anti-Histamine-Succinyl-Glycine). Les images sont enregistrées comme indiqué dans l'exemple précédent. […] Des cellules de tumeurs colorectales humaines (cellules LS 174, 3.10^6) sont injectées par voie sous cutanée à des souris nudes. […] Les souris reçoivent alors 2µg de conjugué anticorps F6-679.1MC7 (antiCEA-anti-Histamine-Succinyl-Glycine). Vingt quatre heures plus tard les souris reçoivent 6,7µCi (1pmol) de dérivé de l'exemple 3. Six heures plus tard les images sont enregistrées comme indiqué dans l'exemple précédent puis les animaux sacrifiés.

[2] = system: tumeurs colorectales humaines (LS174); conditions: 2 µg conjugate F6-679.1MC7 24 h earlier, 6,7 µCi (1 pmol)
Experimental: as §1

cellules hépatiques = conditions: 2 µg antibody 679.1MC7 24 h earlier; 100 µCi (15 pmol) i.v.; 4 h after injection
Experimental: as §1

## ^99mTc mercaptoacétyl-Glycyl-Glycyl-Glycyl-N-ε-(Histamine-Succinyl-Glycine)-Lysyl-D-Tyrosyl-N-ε-(Histamine-Succinyl-Glycine)-Lysinamide [Exemple 3]
Cellules LS-174 T
  pourcentage de sonde lié par rapport à sa quantité totale: ~70%
[1]
  % de la dose injectée localisée dans la rate: 43 ± 3 % de la dose injectée
  scintigraphie de la rate: apparente en scintigraphie
[2]
  visibilité des tumeurs: visibles dès trois heures après l'injection
[2]; 6 h after injection
  localisation de la radioactivité: 9,8 ± 3,7 % / g de tumeur
  rapport de marquage tumeur/plasma: 2.0 + 0.5
Cellules hépatiques
  % de la dose injectée localisée dans le foie: 54 ± 6 % de la dose injectée
  scintigraphie du foie: apparent en scintigraphie
